Source: the supplement of paper PMC8671470

The compounds below were run on Mono-Mac-6 (assay: cell viability (% survival relative to DMSO control); higher = less cytotoxic). Settings: drug1 concentration 10 nM; drug2 concentration 1000 nM; 72 h.
Experimental: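 8x8 drug-combination matrices (0–5000 nM; rosiglitazone and lestaurtinib 0–1000 nM) were run in Mono-Mac-6 cells for 72 h with CellTiter-Glo read-out. Survival is normalised to DMSO and 10 µM bortezomib and clipped at 100%.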
With `O=C(C1CC1)N1CC[C@@H](C=C2NNC(=O)N2c2ccc(-c3ccc4occc4c3)cc2)C1` + C[C@H](NC(=O)c1sccc1OCc1ccc(Cl)cc1)c1ccccc1 [as1949490] the cell viability was > 100%. In the case of `O=C(C1CC1)N1CC[C@@H](C=C2NNC(=O)N2c2ccc(-c3ccc4occc4c3)cc2)C1` + O=C(c1c2ccccc2cc2ccccc12)N1CCC(N2CCC[C@@H](C(=O)N3CCOCC3)C2)CC1 [CP-640186], the cell viability is reported as > 100%. `CC(C)c1onc(-c2c(Cl)cccc2Cl)c1COc1ccc(/C=C/c2cccc(C(=O)O)c2)c(Cl)c1` [GW4064] + Cn1cc(-c2ccncc2)c(-c2ccc(OCc3ccc4ccccc4n3)cc2)n1 [PF-02545920] was tested, and the cell viability was > 100%.

Same assay, conditions: drug1 concentration 10 nM; drug2 concentration 5000 nM; 72 h
`O=C(C1CC1)N1CC[C@@H](C=C2NNC(=O)N2c2ccc(-c3ccc4occc4c3)cc2)C1` + CS(=O)(=O)N1CCN(Cc2cc3nc(-c4cccc5[nH]ncc45)nc(N4CCOCC4)c3s2)CC1 [Pictilisib] showed a cell viability of 27.5%. `O=C(C1CC1)N1CC[C@@H](C=C2NNC(=O)N2c2ccc(-c3ccc4occc4c3)cc2)C1` + C[C@H](NC(=O)c1sccc1OCc1ccc(Cl)cc1)c1ccccc1 [as1949490] showed a cell viability of 73.5%. Compound `O=C(C1CC1)N1CC[C@@H](C=C2NNC(=O)N2c2ccc(-c3ccc4occc4c3)cc2)C1` + O=C(c1c2ccccc2cc2ccccc12)N1CCC(N2CCC[C@@H](C(=O)N3CCOCC3)C2)CC1 [CP-640186] has a cell viability of 70.2%. Work on `CC(C)c1onc(-c2c(Cl)cccc2Cl)c1COc1ccc(/C=C/c2cccc(C(=O)O)c2)c(Cl)c1` [GW4064] + Cn1cc(-c2ccncc2)c(-c2ccc(OCc3ccc4ccccc4n3)cc2)n1 [PF-02545920] yielded a cell viability of 91.6%.

Same assay, conditions: drug1 concentration 50 nM; drug2 concentration 5 nM; 72 h
Compound `O=C(C1CC1)N1CC[C@@H](C=C2NNC(=O)N2c2ccc(-c3ccc4occc4c3)cc2)C1` + CS(=O)(=O)N1CCN(Cc2cc3nc(-c4cccc5[nH]ncc45)nc(N4CCOCC4)c3s2)CC1 [Pictilisib] has a cell viability of 88.6%. `O=C(C1CC1)N1CC[C@@H](C=C2NNC(=O)N2c2ccc(-c3ccc4occc4c3)cc2)C1` + C[C@H](NC(=O)c1sccc1OCc1ccc(Cl)cc1)c1ccccc1 [as1949490] gave a cell viability of 94.8%. With `O=C(C1CC1)N1CC[C@@H](C=C2NNC(=O)N2c2ccc(-c3ccc4occc4c3)cc2)C1` + O=C(c1c2ccccc2cc2ccccc12)N1CCC(N2CCC[C@@H](C(=O)N3CCOCC3)C2)CC1 [CP-640186] the cell viability was 88.2%. With `CC(C)c1onc(-c2c(Cl)cccc2Cl)c1COc1ccc(/C=C/c2cccc(C(=O)O)c2)c(Cl)c1` [GW4064] + Cn1cc(-c2ccncc2)c(-c2ccc(OCc3ccc4ccccc4n3)cc2)n1 [PF-02545920] the cell viability was > 100%.

Same assay, conditions: drug1 concentration 50 nM; drug2 concentration 10 nM; 72 h
For `O=C(C1CC1)N1CC[C@@H](C=C2NNC(=O)N2c2ccc(-c3ccc4occc4c3)cc2)C1` + CS(=O)(=O)N1CCN(Cc2cc3nc(-c4cccc5[nH]ncc45)nc(N4CCOCC4)c3s2)CC1 [Pictilisib], the cell viability was 85.6%. With `O=C(C1CC1)N1CC[C@@H](C=C2NNC(=O)N2c2ccc(-c3ccc4occc4c3)cc2)C1` + C[C@H](NC(=O)c1sccc1OCc1ccc(Cl)cc1)c1ccccc1 [as1949490] the cell viability was > 100%. In the case of `O=C(C1CC1)N1CC[C@@H](C=C2NNC(=O)N2c2ccc(-c3ccc4occc4c3)cc2)C1` + O=C(c1c2ccccc2cc2ccccc12)N1CCC(N2CCC[C@@H](C(=O)N3CCOCC3)C2)CC1 [CP-640186], the cell viability is reported as > 100%. With `CC(C)c1onc(-c2c(Cl)cccc2Cl)c1COc1ccc(/C=C/c2cccc(C(=O)O)c2)c(Cl)c1` [GW4064] + Cn1cc(-c2ccncc2)c(-c2ccc(OCc3ccc4ccccc4n3)cc2)n1 [PF-02545920] the cell viability was 79.3%.

Same assay, conditions: drug1 concentration 50 nM; drug2 concentration 50 nM; 72 h
`O=C(C1CC1)N1CC[C@@H](C=C2NNC(=O)N2c2ccc(-c3ccc4occc4c3)cc2)C1` + CS(=O)(=O)N1CCN(Cc2cc3nc(-c4cccc5[nH]ncc45)nc(N4CCOCC4)c3s2)CC1 [Pictilisib] showed a cell viability of 81.7%. With `O=C(C1CC1)N1CC[C@@H](C=C2NNC(=O)N2c2ccc(-c3ccc4occc4c3)cc2)C1` + C[C@H](NC(=O)c1sccc1OCc1ccc(Cl)cc1)c1ccccc1 [as1949490] the cell viability was > 100%. In the case of `O=C(C1CC1)N1CC[C@@H](C=C2NNC(=O)N2c2ccc(-c3ccc4occc4c3)cc2)C1` + O=C(c1c2ccccc2cc2ccccc12)N1CCC(N2CCC[C@@H](C(=O)N3CCOCC3)C2)CC1 [CP-640186], the cell viability is reported as > 100%. With `CC(C)c1onc(-c2c(Cl)cccc2Cl)c1COc1ccc(/C=C/c2cccc(C(=O)O)c2)c(Cl)c1` [GW4064] + Cn1cc(-c2ccncc2)c(-c2ccc(OCc3ccc4ccccc4n3)cc2)n1 [PF-02545920] the cell viability was > 100%.

Same assay, conditions: drug1 concentration 50 nM; drug2 concentration 100 nM; 72 h
For `O=C(C1CC1)N1CC[C@@H](C=C2NNC(=O)N2c2ccc(-c3ccc4occc4c3)cc2)C1` + CS(=O)(=O)N1CCN(Cc2cc3nc(-c4cccc5[nH]ncc45)nc(N4CCOCC4)c3s2)CC1 [Pictilisib], the cell viability was 91.8%. In the case of `O=C(C1CC1)N1CC[C@@H](C=C2NNC(=O)N2c2ccc(-c3ccc4occc4c3)cc2)C1` + C[C@H](NC(=O)c1sccc1OCc1ccc(Cl)cc1)c1ccccc1 [as1949490], the cell viability is reported as > 100%. For `O=C(C1CC1)N1CC[C@@H](C=C2NNC(=O)N2c2ccc(-c3ccc4occc4c3)cc2)C1` + O=C(c1c2ccccc2cc2ccccc12)N1CCC(N2CCC[C@@H](C(=O)N3CCOCC3)C2)CC1 [CP-640186], the cell viability was > 100%. With `CC(C)c1onc(-c2c(Cl)cccc2Cl)c1COc1ccc(/C=C/c2cccc(C(=O)O)c2)c(Cl)c1` [GW4064] + Cn1cc(-c2ccncc2)c(-c2ccc(OCc3ccc4ccccc4n3)cc2)n1 [PF-02545920] the cell viability was > 100%.

Same assay, conditions: drug1 concentration 50 nM; drug2 concentration 500 nM; 72 h
In the case of `O=C(C1CC1)N1CC[C@@H](C=C2NNC(=O)N2c2ccc(-c3ccc4occc4c3)cc2)C1` + CS(=O)(=O)N1CCN(Cc2cc3nc(-c4cccc5[nH]ncc45)nc(N4CCOCC4)c3s2)CC1 [Pictilisib], the cell viability is reported as > 100%. `O=C(C1CC1)N1CC[C@@H](C=C2NNC(=O)N2c2ccc(-c3ccc4occc4c3)cc2)C1` + C[C@H](NC(=O)c1sccc1OCc1ccc(Cl)cc1)c1ccccc1 [as1949490] was tested, and the cell viability was 74.2%. In the case of `O=C(C1CC1)N1CC[C@@H](C=C2NNC(=O)N2c2ccc(-c3ccc4occc4c3)cc2)C1` + O=C(c1c2ccccc2cc2ccccc12)N1CCC(N2CCC[C@@H](C(=O)N3CCOCC3)C2)CC1 [CP-640186], the cell viability is reported as 87.4%. With `CC(C)c1onc(-c2c(Cl)cccc2Cl)c1COc1ccc(/C=C/c2cccc(C(=O)O)c2)c(Cl)c1` [GW4064] + Cn1cc(-c2ccncc2)c(-c2ccc(OCc3ccc4ccccc4n3)cc2)n1 [PF-02545920] the cell viability was > 100%.

Same assay, conditions: drug1 concentration 50 nM; drug2 concentration 1000 nM; 72 h
`O=C(C1CC1)N1CC[C@@H](C=C2NNC(=O)N2c2ccc(-c3ccc4occc4c3)cc2)C1` + CS(=O)(=O)N1CCN(Cc2cc3nc(-c4cccc5[nH]ncc45)nc(N4CCOCC4)c3s2)CC1 [Pictilisib] gave a cell viability of 52.4%. In the case of `O=C(C1CC1)N1CC[C@@H](C=C2NNC(=O)N2c2ccc(-c3ccc4occc4c3)cc2)C1` + C[C@H](NC(=O)c1sccc1OCc1ccc(Cl)cc1)c1ccccc1 [as1949490], the cell viability is reported as 97.3%. With `O=C(C1CC1)N1CC[C@@H](C=C2NNC(=O)N2c2ccc(-c3ccc4occc4c3)cc2)C1` + O=C(c1c2ccccc2cc2ccccc12)N1CCC(N2CCC[C@@H](C(=O)N3CCOCC3)C2)CC1 [CP-640186] the cell viability was > 100%. In the case of `CC(C)c1onc(-c2c(Cl)cccc2Cl)c1COc1ccc(/C=C/c2cccc(C(=O)O)c2)c(Cl)c1` [GW4064] + Cn1cc(-c2ccncc2)c(-c2ccc(OCc3ccc4ccccc4n3)cc2)n1 [PF-02545920], the cell viability is reported as 77.2%.

Same assay, conditions: drug1 concentration 50 nM; drug2 concentration 5000 nM; 72 h
`O=C(C1CC1)N1CC[C@@H](C=C2NNC(=O)N2c2ccc(-c3ccc4occc4c3)cc2)C1` + CS(=O)(=O)N1CCN(Cc2cc3nc(-c4cccc5[nH]ncc45)nc(N4CCOCC4)c3s2)CC1 [Pictilisib] showed a cell viability of 37.5%. With `O=C(C1CC1)N1CC[C@@H](C=C2NNC(=O)N2c2ccc(-c3ccc4occc4c3)cc2)C1` + C[C@H](NC(=O)c1sccc1OCc1ccc(Cl)cc1)c1ccccc1 [as1949490] the cell viability was > 100%. In the case of `O=C(C1CC1)N1CC[C@@H](C=C2NNC(=O)N2c2ccc(-c3ccc4occc4c3)cc2)C1` + O=C(c1c2ccccc2cc2ccccc12)N1CCC(N2CCC[C@@H](C(=O)N3CCOCC3)C2)CC1 [CP-640186], the cell viability is reported as 98.1%. With `CC(C)c1onc(-c2c(Cl)cccc2Cl)c1COc1ccc(/C=C/c2cccc(C(=O)O)c2)c(Cl)c1` [GW4064] + Cn1cc(-c2ccncc2)c(-c2ccc(OCc3ccc4ccccc4n3)cc2)n1 [PF-02545920] the cell viability was 65%.

Same assay, conditions: drug1 concentration 100 nM; drug2 concentration 5 nM; 72 h
In the case of `O=C(C1CC1)N1CC[C@@H](C=C2NNC(=O)N2c2ccc(-c3ccc4occc4c3)cc2)C1` + CS(=O)(=O)N1CCN(Cc2cc3nc(-c4cccc5[nH]ncc45)nc(N4CCOCC4)c3s2)CC1 [Pictilisib], the cell viability is reported as 86.5%.
